Laboratory results taken from US20180333382A1, “PHARMACEUTICAL COMPOSITIONS COMPRISING DGLA AND USE OF SAME” (DS Biopharma Limited, priority 2017, published 2018).
Several values for one entry are separate records, joined by “and”; a condition that tells them apart may be missing. Equal entries are not always repeated. Marks after values point to notes of the source that are not given here.

Experiments:
[1] = system: spontaneous hypertensive rats; assay: Arterial pressure and phenylephrine-induced hypertensive response after seven days of gavage (DGLA, aspirin, DGLA + aspirin); assay type: in vivo, rat
Experimental: An in vivo investigation of anti-hypertension efficacy following co-administration of DGLA and aspirin in spontaneous hypertensive rats was conducted. This experiment investigated the efficacy of DGLA when co-administered chronically with aspirin to reduce the hypertensive response induced acutely by phenylephrine in spontaneous hypertensive rats. Spontaneously hypertensive adult male rats (250-300 g), bred by Charles River Laboratories, were used for this assay. The animals were identified upon arrival as per CCPA guidelines. The animals were pair-housed by group (low dose+aspirin, high dose+aspirin or aspirin alone) for the duration of the oral gavage prior to surgery. All animal care and vivarium maintenance was recorded, with documents kept at the test facility.
The concentrations of DGLA to be tested (50 and 500 mg/kg) as well as the concentration of aspirin (10 mg/kg) were selected by the Sponsor based on information available at the time of design of this study. They were selected to cover a range of concentrations useful for the identification of the mechanism of action of the test article.
All solution preparations were documented on a Solution Contents Form, defining labelling information and all relevant information on reagents: batch number, storage conditions, contents, and preparation/expiry dates.
The test article was formulated using olive oil as the vehicle. This stock solution was then administered by oral gavage once per day for seven consecutive days. A low and a high dose (50 mg/kg and 500 mg/kg) were tested.
A 5 mg/ml stock solution of aspirin was prepared by dissolving the appropriate amount of aspirin in 100% DMSO which was then diluted in water. The concentration of DMSO was less than 1%. The appropriate volume was administered by oral gavage to each animal once per day for seven consecutive days. The stock solution was stored at room temperature and was considered stable for the duration of the gavage.
The appropriate volume was administered to each animal by an intravenous injection at the end of the experiment on the surgery day. The stock solution was stored at 4° C. and was considered stable for the duration of the experiment.
A stock solution of phenylephrine of 1 mg/ml were prepared in PBS (pH=7.4±0.05). The stock solution was stored at 4° C. The expiration date was set at 14 days after preparation.
Male spontaneous hypertensive rats weighing approximately 300 g arrived at the facility at least two days before beginning the oral gavage. Animals were assigned to one of three groups (low dose+aspirin, high dose+aspirin, and aspirin), and were pair-housed during the acclimation period. Each group (n=4) received the appropriate compound by oral gavage using a 16 G feeding needle. The stock solution was administered once per day for seven consecutive days. On the seventh day of administration, the animals underwent surgery and hypertensive monitoring.
Rats were anesthetized with a 2.5-3.0% isoflurane-O2 mixture in an induction box. When the animals were removed from the induction box, they were connected onto a nose cone to maintain anesthesia during the tracheotomy. The animals were tracheotomised with an endotracheal tube (7 cm length from connector to the tip made with a PE205 tube from BD and a 16 G needle) to facilitate spontaneous breathing, stabilize hemodynamics, and to keep the rat under anesthesia with an isoflurane-O2 mixture. Two catheters were inserted: one in the right femoral artery for systemic arterial pressure (SAP) measurement, and one in the right femoral vein for delivery of the hypertensor and positive control. ECG signals were acquired with ECG contacts placed in a Lead-1 configuration on the anaesthetized animal, and a pulse oxymeter was attached to the animal's hind paw to enable continuous monitoring of the general condition of the rat during the surgical procedure.

[2] = in vivo
Experimental: In Part one of the study, plasma PK analysis of Dihomo-Gamma-Linolenic Acid (DGLA) and 15-Hydroxyeicosatrienoic acid (15-HETrE), in fasted subjects alone, was performed for Cohorts one to four up to 312 hours post dose on study Days 1 to 5, 8, 14, and the follow-up visit.
Analysis of plasma concentrations of DGLA (free and total) and free 15-HETrE were performed in blood samples obtained from the subjects.
Analysis of all plasma and skin blister fluid samples was performed using validated methods. Concentrations of free and total DGLA were measured in plasma and skin blister fluid by liquid chromatography with tandem mass spectrometry (LC/MS/MS); the quantitation range was 100 to 10,000 ng/mL for free DGLA and 5000 to 500,000 ng/mL for total DGLA. Plasma concentrations of free 15-HETrE were measured by LC/MS/MS with a quantitation range of 100 to 10,000 ng/mL.

[3] = Aspirin 10 mg/kg, seven days of gavage, before phenylephrine
[4] = aspirin only (10 mg/kg), seven consecutive days of gavage
[5] = aspirin only (10 mg/kg), seven consecutive days of gavage, Rat #1-#5

COc1ccccc1OCCNCC(O)COc1cccc2[nH]c3ccccc3c12 (stereo not shown) [Carvedilol, carvedilol]
effect on blood pressure ([1]; 0.1 mg/kg iv, DGLA+aspirin-fed animals): significant decrease in blood pressure | effect on mean systemic arterial pressure when added after phenylephrine ([1]; 0.1 mg/kg iv, aspirin-fed rats): significant decrease | Mean Arterial Pressure, individual rats ([1]; gavage Aspirin 10 mg/kg 7 days, Carvedilol 0.1 mg/kg iv): 57.12 mmHg and 44.38 mmHg and 145.56 mmHg and 134.82 mmHg and 115.06 mmHg | Mean Arterial Pressure, individual rats ([1]; gavage DGLA 50 mg/kg + Aspirin 10 mg/kg 7 days, Carvedilol 0.1 mg/kg iv): 115.29 mmHg and 97.01 mmHg and 126.33 mmHg and 59.10 mmHg and 58.93 mmHg | Mean Arterial Pressure, Average SAP ([1]; gavage DGLA 50 mg/kg + Aspirin 10 mg/kg 7 days, Carvedilol 0.1 mg/kg iv, n=5): 91.3 † mmHg | Mean Arterial Pressure, individual rats ([1]; gavage DGLA 500 mg/kg + Aspirin 10 mg/kg 7 days, Carvedilol 0.1 mg/kg iv): 62.13 mmHg and 57.56 mmHg and 57.32 mmHg and 52.11 mmHg | Mean Arterial Pressure, Average SAP ([1]; gavage DGLA 500 mg/kg + Aspirin 10 mg/kg 7 days, Carvedilol 0.1 mg/kg iv, n=4): 57.3 † mmHg

CC(=O)Oc1ccccc1C(=O)O [Aspirin, aspirin]
Arterial pressure, Diastol [1, 3]: 100 mmHg | Arterial pressure, Systol [1, 3]: 190 mmHg | Mean systemic arterial pressure [1, 3]: 130 mmHg | Mean arterial pressure at baseline, Average SAP [1, 4]: 136.8 mm of Hg | Mean arterial pressure with an intravenous dose of Phenylephrine 20 μg/kg, Average SAP [1, 4]: 174.3 mm of Hg | Mean arterial pressure at baseline, individual rats [1, 5]: 86.75 mm of Hg and 107.64 mm of Hg and 160.50 mm of Hg and 141.36 mm of Hg and 187.84 mm of Hg | Mean arterial pressure with an intravenous dose of Phenylephrine 20 μg/kg, individual rats [1, 5]: 149.35 mm of Hg and 120.84 mm of Hg and 202.61 mm of Hg and 194.76 mm of Hg and 203.90 mm of Hg | Mean Arterial Pressure, individual rats ([1]; gavage Aspirin 10 mg/kg 7 days, Baseline): 86.75 mmHg and 107.64 mmHg and 160.50 mmHg and 141.36 mmHg and 187.84 mmHg | Mean Arterial Pressure, Average ([1]; gavage Aspirin 10 mg/kg 7 days, Baseline, n=5): 136.8 mmHg | Mean Arterial Pressure, individual rats ([1]; gavage Aspirin 10 mg/kg 7 days, PHE 3 μg/kg iv): 97.24 mmHg and 122.18 mmHg and 168.06 mmHg and 150.54 mmHg and 192.06 mmHg | Mean Arterial Pressure, Average ([1]; gavage Aspirin 10 mg/kg 7 days, PHE 3 μg/kg iv, n=5): 146.0* mmHg | Mean Arterial Pressure, individual rats ([1]; gavage Aspirin 10 mg/kg 7 days, PHE 10 μg/kg iv): 137.63 mmHg and 122.18 mmHg and 203.75 mmHg and 169.61 mmHg and 201.69 mmHg | Mean Arterial Pressure, individual rats ([1]; gavage Aspirin 10 mg/kg 7 days, PHE 10 μg/kg iv after Carvedilol): 93.22 mmHg and 52.61 mmHg and 185.63 mmHg and 171.45 mmHg and 187.96 mmHg | Mean Arterial Pressure, Average ([1]; gavage Aspirin 10 mg/kg 7 days, PHE 10 μg/kg iv after Carvedilol, n=5): 138.2 § mmHg | Mean Arterial Pressure, Average ([1]; gavage Aspirin 10 mg/kg 7 days, PHE 10 μg/kg iv, n=5): 167.0* mmHg | Mean Arterial Pressure, individual rats ([1]; gavage Aspirin 10 mg/kg 7 days, PHE 20 μg/kg iv): 149.35 mmHg and 120.84 mmHg and 202.61 mmHg and 194.76 mmHg and 203.90 mmHg | Mean Arterial Pressure, Average ([1]; gavage Aspirin 10 mg/kg 7 days, PHE 20 μg/kg iv, n=5): 174.3* mmHg | Mean Arterial Pressure, individual rats ([1]; gavage Aspirin 10 mg/kg 7 days, second Baseline after PHE 20 μg/kg): 98.38 mmHg and 64.32 mmHg and 164.88 mmHg and 159.32 mmHg and 177.61 mmHg | Mean Arterial Pressure, Average ([1]; gavage Aspirin 10 mg/kg 7 days, second Baseline after PHE 20 μg/kg, n=5): 132.9** mmHg

CNC[C@H](O)c1cccc(O)c1 [phenylephrine]
hypertensor effect on mean systemic arterial pressure ([1]; 3, 10, 20 μg/kg iv, rats fed with aspirin): increased mean systemic arterial pressure with increasing doses

CCCCC[C@H](O)/C=C/C=C\C/C=C\CCCCCCC(=O)O [15-HETrE, 15-Hydroxyeicosatrienoic acid]
plasma free 15-HETrE concentrations after DS107G [2]: < 100 ng/mL
